Measured values published in patent US20250230244A1, “METHODS AND COMPOSITIONS COMPRISING B7-H3 BINDING POLYPETIDES” (BOARD OF REGENTS, THE UNIVERSITY OF TEXAS SYSTEM, priority 2021, published 2025).

Legend:
[1] = test system: AML cell lines (OCI-AML3, MV4-11, and U937); assay: NK cell ADCC, annexin V binding, Incucyte, AML cell lines; type: cell-based, human
Procedure: For live-cell apoptosis analysis, the inventors stained OCI-AML3, MV4-11, U937, and primary cells with CytoLight Red (#4482; Essen BioScience). […] Time-lapse fluorescence imaging was performed using an Incucyte live-cell imaging system (Essen BioScience) to assess apoptosis induction every 1 hour for 20-48 hours. The apoptosis in leukemic cells was measured by green and red overlap counts.
Rituximab is a chimeric anti-CD20 antibody that was used as a non-specific control antibody. NK cell-induced apoptosis was measured by annexin V binding assay using the Incucyte live-cell imaging system. […] Representative images of OCI-AML3 cells undergoing apoptosis at different time points in different treatment conditions are shown in FIG. 12A.

[2] = test system: BC cell lines (MCF7 and HCC38); assay: NK cell-mediated ADCC in breast cancer cell lines; type: cell-based, human; conditions: 10 μg/mL
Description: Rituximab is a chimeric anti-CD20 antibody that was used as a nonspecific control antibody.

In the case of rituximab [reference compound], the “apoptosis of leukemic cells (NK cell ADCC)” value ([1]; 1, 5, and 10 μg/mL, with NK cells, 8:1 ratio) is reported as “did not show significant outcomes”, the “killing of leukemic cells, antibody alone, at 28 and 22 hours” value ([1]; antibody alone) is reported as “no effect on killing leukemic cells” and the “apoptosis in BC cells (ADCC)” value ([2]; with NK cells, 15:1 NK-to-target cell ratio) is reported as “did not show significant outcomes”. The “killing of BC cells, antibody alone, after 10 hours” value ([2]; without NK cells) was “did not affect the killing of BC cells”.
